Patent US9248171B2, “Immunogenic peptides and their use in transplantation” (IMCYSE SA, priority 2008, dated 2016)
Marks after values point to notes of the source that are not given here.

Tests used:
[1] = system: APC (antigen-presenting cells); experiment: Apoptosis of peptide-loaded APC (Annexin V binding) induced by CD4+ T cells from immunized mice (Dby peptides); assay type: cell-based, C57B1/6 mice; conditions: 10 μg peptide SC in CFA then IFA; APC loaded with SEQ ID. NO: 5 or SEQ ID. NO: 6
Experimental: Groups of C57BL/6 female mice were immunized with 10 μg of peptide of SEQ ID. NO: 6 emulsified in CFA (complete Freund's adjuvant) for the first SC (subcutaneous) injection and in IFA (incomplete Freund's adjuvant) for the two subsequent immunizations. The spleen of such mice was retrieved 10 days after the last immunization and CD4+ T cells were obtained by cell sorting using magnetic beads.
These CD4+ T cells were assayed in vitro for their capacity to induce apoptosis of APC (antigen-presenting cells). Thus, spleen cells of naïve C57B1/6 mice were deprived of CD4+ T cells by magnetic bead sorting and used as APC. Such APC were loaded with peptides of either SEQ ID. NO: 5 or of SEQ ID. NO: 6 by incubation for 16 h at room temperature. The cells were then washed to eliminate residual free peptides.

[2] = system: male C57B1/6 skin allograft; experiment: Skin graft rejection, male skin onto pre-immunized syngeneic female mice (naive mice); assay type: in vivo, C57B1/6 mice; conditions: for Rejection rate Day 10 / Rejection rate Day 20: 3 SC injections, rejected mice/mice, rejection = more than 50% of graft surface necrotic; for Effect of pre-immunization on skin graft rejection (in words): pre-immunization in either CFA/IFA or alum
Experimental: One of the most studied models of graft rejection is skin grafting between syngeneic animals of different sex. Thus, the […] contains a number of genes, in particular the Dby gene, which encodes a minor histocompatibility antigen that elicits strong CD4+ T cell activation and chronic rejection in females. […] T cell epitopes from the Dby antigen have been described and selected as shown in Example 1 (peptide of SEQ ID. NO: 5). A synthetic peptide of SEQ ID. NO: 6 was prepared. Groups of 3 female C57B1/6 mice (H-2b haplotype) were made for testing the capacity of modified peptides of SEQ ID NO:1 to elicit tolerance to the skin allograft. Where applicable, pre-immunization was carried out by 3 subcutaneous injections of peptides containing either the natural epitope or its modified counterpart. Injections were made at fortnight intervals in either CFA/IFA or alum. Groups were therefore as follows: • Group 1: skin allograft without preimmunization • Group 2: skin autograft • Group 3: preimmunization with peptide of SEQ ID. NO: 6 emulsified in CFA (first immunization) and IFA for second and third immunization) • Group 4: same as in Group 3, but with alum as an adjuvant • Group 5: same as in Group 3, but using the natural peptide of SEQ ID. NO: 5 All these mice, except for Group 2 mice, received a male C57B1/6 skin allograft of 1 cm2, either directly (Group 1) or 2 weeks after the last immunization for Groups 3, 4 and 5. Group 2 mice received and autograft. Rejection rate was evaluated at day 10 and 20 and judged effective if more than 50% of the graft surface was necrotic.

[3] = system: heterotopic male heart transplant; experiment: Heterotopic male heart transplant in pre-immunized syngeneic female mice; assay type: in vivo, C57B1/6 mice; conditions: 3 subcutaneous injections at fortnight intervals in CFA/IFA
Excerpt: To establish the proof of concept that cytolytic regulatory CD4+ T cells of the present invention can prevent rejection of a vascularized organ, the model of heterotopic heart transplantation is used. This method is well known in the art, as described for instance in Kadner A et al, European Journal of Cardio-thoracic Surgery (2000) 17: 474-481. Briefly, the method consists in abdominal implantation of the heart in a non-working setting, namely the heart is vascularized but not supporting the circulation. This allows long-term follow-up of the graft and multiple biopsies without killing the experimental animal.
Hearts from C57BL/6 males are grafted using such technique in the abdomen of syngeneic females. The rejection process, which is mediated by expression of H-Y-derived antigens in both MHC class I and MHC class II determinants, is mainly due to the circulation of recipient's specific CD4+ T cells that are activated by recognition of alloantigen-derived peptides by graft endothelial cells. Such CD4+ T cells produce IL-2 and IFN-gamma, driving more inflammation and providing help for the maturation of specific CD8+ T cells.
C57B1/6 female mice are pre-immunized before receiving the male allograft with peptides of either SEQ ID NO:5, SEQ ID NO:6 or a sham peptide. This is carried out by 3 subcutaneous injections of peptides made at fortnight intervals in either CFA/IFA. Thereafter, all mice receive a heterotopic male heart transplant.

[4] = system: Bm12 mouse skin allograft; experiment: Rejection of Bm12 skin graft (MHC class II mismatch) in pre-immunized C57B1/6 mice; assay type: in vivo; conditions: 3 subcutaneous administrations in CFA/IFA at fortnight intervals
Excerpt: The Bm12 mice constitute a variant of the C57B1/6 mice in which a spontaneous mutation has occurred in the I-Ab locus. This mutation consists of 3 amino acid substitutions in a stretch of 5 amino acids and thereby generates a limited MHC class II mismatch between Bm12 mice and C57B1/6 wild type mice. This mismatch is nevertheless sufficient as to elicit rejection of Bm12 mouse skin allograft.
The 3 substituted amino acids are Ile67Phe, Arg70Gln and Thr71Lys located in the third hypervariable region of the beta chain. A synthetic peptide encompassing these residues was made and has the sequence: PEFLEQKRA (SEQ ID. NO: 10). This peptide was modified according to the invention by incorporation of a thioreductase consensus sequence, resulting in the exemplary immunogenic peptide CGHCPEFLEQKRA (SEQ ID. NO: 11).
Cytotoxic CD4+ regulatory T cells towards the modified peptide of SEQ ID. NO: 11 are elicited in C57B1/6 mice by 3 subcutaneous administration of the peptide in CFA/IFA given at fortnight intervals. Such mice are then grafted with the skin of Bm12 mice.

Row | Sequence | APC apoptosis (surface binding of Annexin V) induced by CD4+ T cells of mice immunized with the peptide [1] | Rejection rate Day 10 ([2]; pre-immunization in CFA/IFA) | Rejection rate Day 20 ([2]; pre-immunization in CFA/IFA) | Effect of pre-immunization on skin graft rejection (in words) [2] | Outcome of transplanted heart after pre-immunization [3] | Rejection rate Day 10 ([2]; pre-immunization in alum) | Rejection rate Day 20 ([2]; pre-immunization in alum) | Graft findings (cellular infiltration, endothelitis, chronic vascular lesions) [3] | Rejection of Bm12 skin graft after preimmunization [4]
1 | FNSNRANSS (T cell epitope of Dby antigen) [SEQ ID. NO: 5, reference compound] | did not induce any significant degree of APC apoptosis | 2/3 | 2/3** | accelerates the rejection | show rejection of the transplanted heart |  |  |  | 
2 | CHGCFNSNRANSS (redox motif + T cell epitope of Dby antigen) [SEQ ID. NO: 6] | induced into apoptosis | 0/3 | 0/3 | fully prevents graft rejection | tolerate the graft | 0/3 | 0/3 | absence of cellular infiltration, of signs of endothelitis and of chronic vascular lesions | 
3 | CGHCPEFLEQKRA (redox motif + mutated version of I-Ab locus) [SEQ ID. NO: 11] |  |  |  |  |  |  |  |  | reject the B12m graft unless they are preimmunized with the peptide of SEQ ID. NO: 11
